Laboratory results reported in patent publication EP1200059B1, “SKIN CARE COMPOSITION” (UNILEVER PLC, priority 1999, dated 2001).
“Also recorded” adds a separate entry of the source.

Tested on: procollagen-I synthesis in human dermal fibroblasts
Experiment: Dot blot assay for procollagen-I protein in dermal fibroblast conditioned medium
Type: cell-based
Details: 0.01 µM trans Retinoic acid; 24 hours; control = 100%
Description: (§1) Primary human foreskin fibroblasts at passage 2 (P2) were seeded into 12-well plates at 10000 cells/cm^2 and maintained for 24 hours in an atmosphere of 5% carbon dioxide and 4% oxygen in Dulbeccos Modified Eagles Medium (DMEM) supplemented with 10% foetal calf serum. After this time the cells were washed with serum free DMEM and then incubated in fresh serum free DMEM for a further 60 hours. The fibroblast monolayers were then washed again with serum free DMEM. Test reagents and vehicle controls were added to the cells in triplicate in a final volume of 0.4ml/well fresh serum free DMEM and incubated for a further 24 hours. This fibroblast conditioned medium was either analysed immediately or snap frozen in liquid nitrogen and stored at -70°C for future analysis. The cells were then counted and data from the dot-blot analysis subsequently standardised to cell number. […]
(§2) At the end of this time the exposed screen was scanned by a phosphorimager (Molecular Dynamics Phosphorimager SF) using ImageQuant™ software. Dot intensity was assessed by computer-assisted image analysis using the quantification tools in ImageQuant™, standardised to cell number and the effects of various test reagents on decorin and procollagen-I synthesis were determined relative to a vehicle treated control value of 100 arbitrary units. […]

In the case of `CC1=C(/C=C/C(C)=C/C=C/C(C)=C/C(=O)O)C(C)(C)CCC1` [trans Retinoic acid, reference compound], the “Procollagen 1” value was 102.8%.

Same assay, conditions: 0.1 µM CLA; 24 hours; control = 100%

In the case of conjugated linoleic acid [CLA], the “Procollagen 1” value was 78.9%.

Tested on: LRAT and ARAT catalysed retinol esterification
Experiment: in vitro Microsomal Assay, overall verdict on retinol esterification (LRAT and ARAT)
Details: verdict on the table results
Description: (§3) A solution containing 0.1M sodium phosphate pH 7 buffer, 5mM dithiothreitol, 2 mg/ml bovine serum albumin, 40 micromolar palmitoyl CoA, 40 micromolar dilauroyl phosphatidyl choline, 10 micromolar retinol and a test compound or solvent blank, was incubated for 1 hour at 37°C with a microsomal fraction isolated from bovine retinal pigment epithelial cells. After incubation, the reaction was quenched by addition of an equal volume of ethanol, and the retinyl esters formed (retinyl palmitate from the ARAT catalysed reaction, and retinyl laurate from the LRAT catalysed reaction) were extracted with hexane.

In the case of `CCCCCCCCCCCCC/C=C/[C@@H](O)[C@H](CO)NC(C)=O` [Acetyl Sphingosine], the “retinol esterification inhibition (result in words)” value (“retinol esterification inhibition” for short) was “potent retinol esterification inhibitors”.
In the case of `CC(C)=CCCC(C)=CCCC(C)=CCO` [Farnesol], the “retinol esterification inhibition” value was “inhibit retinol esterification”.
With `CC(C)=CCC/C(C)=C/CC/C(C)=C/CC/C(C)=C/CO` [Geranyl Geraniol] the “retinol esterification inhibition” value was “inhibit retinol esterification; also recorded: potent inhibitor of retinol esterification”.
In the case of `CCCCC/C=C\C/C=C\CCCCCCCC(=O)N(CCO)CCO` [Linoleamide-DEA (LODEA), Linoleamide-DEA], the “retinol esterification inhibition” value was “potent retinol esterification inhibitors”.
In the case of `CCCCC/C=C\C/C=C\CCCCCCCC(=O)NCCO` [Linoleamide-MEA (LOMEA), Linoleamide-MEA], the “retinol esterification inhibition” value was “potent retinol esterification inhibitors”.

Tested on: decorin synthesis in human dermal fibroblasts
Experiment: Dot blot assay for decorin protein in dermal fibroblast conditioned medium
Type: cell-based
Details: 0.01 µM Ceramide 6; 24 hours; relative to vehicle control = 100
Description: as §1, §2

Ceramide 6 showed a Decorin of 101.2%.

Same assay, conditions: 0.1 µM CLA; 24 hours; relative to vehicle control = 100

conjugated linoleic acid [CLA] was tested, and the Decorin was 96.8%.

Tested on: acyl CoA retinol transferase (ARAT)
Experiment: in vitro Microsomal Assay of retinol esterification, ARAT catalysed (retinyl palmitate formation)
Details: Table 5; 10 μM
Description: as §3

For `CCCCCCCCCCCCC/C=C/[C@@H](O)[C@H](CO)NC(C)=O` [Acetyl Sphingosine], the “% INHIB. ARAT” value was 19%.

Same assay, conditions: Table 5; 100 μM

Point of comparison: `Cc1ncc(C[n+]2csc(CCO)c2C)c(N)n1` [thiamine], “% INHIB. ARAT” value 0%. Against it:
- CCCCCCCCCCCCC/C=C/[C@@H](O)[C@H](CO)NC(C)=O [Acetyl Sphingosine] — higher, 62%
- Nc1ncnc2nc[nH]c12 [adenine] — the same, 0%
- O=C(NCO)N(CO)C1(CO)C(=O)NC(=O)N1CO (centres unmarked) [diazolidinyl urea] — the same, 0%
- N[C@@H](Cc1c[nH]c2ccccc12)C(=O)O [tryptophan] — the same, 0%
- O=c1cc[nH]c(=O)[nH]1 [uracil] — the same, 0%

Same assay, conditions: Table 6A; 100µM

Point of comparison: `CC(=O)c1cc2c(cc1C)C(C)(C)[C@H](C)[C@H]2C(C)C` [Traseolide], “% INHIBITION, ARAT” value 41%. Against it:
- CCC(=O)/C=C/C1C(C)=CCCC1(C)C (stereo not drawn) [Alpha methyl ionone] — higher, 67%
- CC1=CCC(CCC(C)CO)C1(C)C (centres unmarked) [Brahmanol] — higher, 70%
- CC=CC(=O)C1CCC(C)(C)C=C1C (centres unmarked) [Isodamascone] — higher, 80%
- CC(C)(O)CCCC1=CCC(C=O)CC1 (centres unmarked) [Lyral] — higher, 76%
- CC(=O)c1cc2c(cc1C)C(C)(C)C(C)CC2(C)C (centres unmarked) [Tonalid] — higher, 50%
- CC=CC(=O)C1C(C)=CCCC1(C)C (stereo not drawn) [alpha damascone] — higher, 83%
- Sandalone — lower, 23%
- Sandanol — lower, 15%

Same assay, conditions: Table 6B; 10µM

In the case of `CC=CC(=O)C1C(C)=CCCC1(C)C` (stereo not drawn) [alpha damascone], the “% INHIBITION, ARAT” value was 67%.

Same assay, conditions: Table 7; 100 µM

Point of comparison: `O=CC=Cc1ccccc1` [Cinnamaldehyde], “% INHIBITION, ARAT” value 0%. Against it:
- CC12CCC(CC1=O)C2(C)C (centres unmarked) [Camphor] — the same, 0%
- C=C(C)C1CC=C(C)C(=O)C1 (centres unmarked) [Carvone] — the same, 0%
- CC(=O)CCC1C(C)=CCCC1(C)C (stereo not drawn) [Dihydro alpha ionone] — higher, 13%
- CC12CCC(CC1)C(C)(C)O2 [Eucalyptol] — the same, 0%
- CC12CCC(C1)C(C)(C)C2O (centres unmarked) [Fenchyl alcohol] — higher, 12%
- CC1=CC(C)C(CO)C(C)C1 (centres unmarked) [Isocyclogeraniol] — higher, 18%
- Cc1ccc(C(C)C)c(O)c1 [Thymol] — the same, 0%
- COc1cc(C=O)ccc1O [Vanillin] — the same, 0%

Same assay, conditions: Table 8; 10 µM

Point of comparison: `CC(C)=CCC/C(C)=C/CC/C(C)=C/CC/C(C)=C/CO` [Geranyl Geraniol], “% INHIB. ARAT” value 38%. Against it:
- CC(C)=CCCC(C)=CCCC(C)=CCO [Farnesol] — lower, 20%

Same assay, conditions: Table 8; 100 µM

Point of comparison: `CC(C)=CCCC(C)=CCCC(C)=CCO` [Farnesol], “% INHIB. ARAT” value 43%. Against it:
- CC(C)=CCC/C(C)=C/CC/C(C)=C/CC/C(C)=C/CO [Geranyl Geraniol] — higher, 81%

Biological target: T1, lecithin retinol acyl transferase (LRAT) (Bos taurus, UniProt Q9BGL2)
T1 sequence (Q9BGL2 1-230): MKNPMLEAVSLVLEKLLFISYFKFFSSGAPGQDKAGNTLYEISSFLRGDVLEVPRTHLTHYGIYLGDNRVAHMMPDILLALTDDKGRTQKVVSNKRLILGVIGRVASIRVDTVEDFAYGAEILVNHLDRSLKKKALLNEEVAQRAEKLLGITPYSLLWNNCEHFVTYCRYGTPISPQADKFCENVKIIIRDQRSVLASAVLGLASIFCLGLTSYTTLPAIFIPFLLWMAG
Experiment: in vitro Microsomal Assay of retinol esterification, LRAT catalysed (retinyl laurate formation)
Details: Table 5; 10 μM
Description: as §3

In the case of `CCCCCCCCCCCCC/C=C/[C@@H](O)[C@H](CO)NC(C)=O` [Acetyl Sphingosine], the “% INHIB. LRAT” value was 10%.

Same assay, conditions: Table 5; 100 μM

Point of comparison: `CCCCCCCCCCCCC/C=C/[C@@H](O)[C@H](CO)NC(C)=O` [Acetyl Sphingosine], “% INHIB. LRAT” value 50%. Against it:
- disodium cocamphodiacetate — lower, 0%

Same assay, conditions: Table 6A; 100µM

Point of comparison: `CC=CC(=O)C1CCC(C)(C)C=C1C` (centres unmarked) [Isodamascone], “% INHIBITION, LRAT” value 92%. Against it:
- CCC(=O)/C=C/C1C(C)=CCCC1(C)C (stereo not drawn) [Alpha methyl ionone] — lower, 77%
- CCOC(=O)C1=C(C)C=CCC1(C)C [Ethyl saffranate] — lower, 49%
- CC(=O)/C(C)=C/C1C(C)=CCCC1(C)C (centres unmarked) [Gamma methyl ionone] — lower, 38%
- CC1=CCCC(C)(C)C1/C=C/C(=O)CC(C)C (centres unmarked) [Isobutyl ionone] — lower, 45%
- Sandalone — lower, 12%
- Sandanol — lower, 43%

Same assay, conditions: read-out: % INHIB. LRAT

Point of comparison: `CC(C)=CCCC(C)=CCCC(C)=CCO` [Farnesol], inhibition at 10 µM 10%. Against it:
- CC(C)=CCC/C(C)=C/CC/C(C)=C/CC/C(C)=C/CO [Geranyl Geraniol] — higher, 16%
- CCCCC/C=C\C/C=C\CCCCCCCC(=O)N(CCO)CCO [Linoleamide-DEA (LODEA), Linoleamide-DEA] — higher, 11%

Point of comparison: `CC(C)=CCC/C(C)=C/CC/C(C)=C/CC/C(C)=C/CO` [Geranyl Geraniol], inhibition at 100 µM 77%. Against it:
- CC(C)=CCCC(C)=CCCC(C)=CCO [Farnesol] — lower, 43%
- CCCCC/C=C\C/C=C\CCCCCCCC(=O)N(CCO)CCO [Linoleamide-DEA (LODEA), Linoleamide-DEA] — lower, 51%
- Nc1ncnc2nc[nH]c12 [adenine] — lower, 0%
- O=C(NCO)N(CO)C1(CO)C(=O)NC(=O)N1CO (centres unmarked) [diazolidinyl urea] — lower, 0%
- Cc1ncc(C[n+]2csc(CCO)c2C)c(N)n1 [thiamine] — lower, 0%
- N[C@@H](Cc1c[nH]c2ccccc12)C(=O)O [tryptophan] — lower, 0%
- O=c1cc[nH]c(=O)[nH]1 [uracil] — lower, 0%

Same assay, conditions: read-out: % INHIBITION, LRAT

Point of comparison: `CC1=CC(C)C(CO)C(C)C1` (centres unmarked) [Isocyclogeraniol], inhibition at 100 µM 16%. Against it:
- CC1=CCCC(C)(C)C1/C=C/C(C)O (stereo not drawn) [Alpha ionol] — lower, 0%
- C/C=C/C(=O)C1=C(C)CCCC1(C)C [Beta damascone] — higher, 92%
- CC1=C(/C=C/C(C)O)C(C)(C)CCC1 (stereo not drawn) [Beta ionol] — lower, 0%
- CC1=CCC(CCC(C)CO)C1(C)C (centres unmarked) [Brahmanol] — higher, 75%
- CC12CCC(CC1=O)C2(C)C (centres unmarked) [Camphor] — lower, 0%
- C=C(C)C1CC=C(C)C(=O)C1 (centres unmarked) [Carvone] — lower, 0%
- O=CC=Cc1ccccc1 [Cinnamaldehyde] — lower, 0%
- C/C=C/C(=O)C1=C(C)C=CCC1(C)C [Damascenone] — higher, 79%
- C/C=C/C(=O)C1C(C)C=CCC1(C)C (centres unmarked) [Delta damascone] — higher, 95%
- CC12CCC(CC1)C(C)(C)O2 [Eucalyptol] — lower, 0%
- CC(C)[C@@H]1CC[C@@H](C)CC1=O [Mentone] — lower, 0%
- Cc1ccc(C(C)C)c(O)c1 [Thymol] — lower, 0%
- CC(=O)c1cc2c(cc1C)C(C)(C)C(C)CC2(C)C (centres unmarked) [Tonalid] — higher, 33%
- COc1cc(C=O)ccc1O [Vanillin] — lower, 0%
- CC=CC(=O)C1C(C)=CCCC1(C)C (stereo not drawn) [alpha damascone] — higher, 98%

Point of comparison: `C/C=C/C(=O)C1=C(C)C=CCC1(C)C` [Damascenone], inhibition at 10 µM 29%. Against it:
- C/C=C/C(=O)C1=C(C)CCCC1(C)C [Beta damascone] — higher, 52%
- C/C=C/C(=O)C1C(C)C=CCC1(C)C (centres unmarked) [Delta damascone] — higher, 64%
- CC=CC(=O)C1C(C)=CCCC1(C)C (stereo not drawn) [alpha damascone] — higher, 87%
